The record followed here is patent publication US20070265273A1, “Pyrimidin-2-Amine Derivatives and Their Use as A2b Adenosine Receptor Antagonists” (priority 2003, published 2007).

For experiment [1], the target named is T1, human recombinant A1 receptors (Homo sapiens, UniProt P30542).
T1 construct: host or cells: CHO-K1
T1 sequence (P30542 1-326): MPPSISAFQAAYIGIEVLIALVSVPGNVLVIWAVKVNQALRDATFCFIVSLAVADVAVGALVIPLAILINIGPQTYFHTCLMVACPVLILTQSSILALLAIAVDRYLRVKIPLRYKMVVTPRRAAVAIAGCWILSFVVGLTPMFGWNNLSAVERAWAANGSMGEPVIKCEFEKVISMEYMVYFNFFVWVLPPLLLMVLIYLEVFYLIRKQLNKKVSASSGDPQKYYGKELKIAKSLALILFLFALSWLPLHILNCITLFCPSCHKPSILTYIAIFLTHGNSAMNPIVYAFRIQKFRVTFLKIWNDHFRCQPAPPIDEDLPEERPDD
Nature of the experiment: Adenosine 1 receptor subtype competition radioligand binding assay. Conditions: 1 h, [3H]-DPCPX, CHO-K1 membranes, read-out: Binding human A1, % @ 1 μM (column headed Ki (nM)). Here is the method:
Adenosine I Receptor Subtype Competition Radioligand Binding Assay
CHO-K1 cells expressing human recombinant A1 receptors were purchased from Euroscreen (Belgium). For membrane preparation, cells were collected from tissue culture plates using a cell scraper, resuspended in 10-15 ml of homogenization buffer (Tris-HCl 15 mM pH 7.5, MgCl2 2 mM, EDTA 0.3 mM, EGTA 1 mM), homogenized, and centrifuged at 40.000 g for 25 minutes. The resulting pellet was resuspended in the same buffer and centrifuged again for 25 minutes. Finally, the pellet was resuspended in 500 μl of storage buffer (Tris-HCl 7.5 mM pH 7.5, MgCl2 12.5 mM, EDTA 0.3 mM, EGTA 1 mM, sucrose 250 mM) where the total protein content was determined.
Competition assays were carried out incubating 15 μg of A1-membrane preparations, 2 nM [^3H]-DPCPX (Amersham) as radioligand and 10 μM of unlabeled DPCPX ligand, in a total volume of 100 μl of buffer (Hepes 20 mM pH 7.4, NaCl 100 mM, MgCl2 10 mM, 2 U/ml adenosin deaminase) for 1 h at 25° C. Samples were filtered and washed 4 times with 250 μl of buffer (Hepes 20 mM pH 7.4, NaCl 100 mM, MgCl2 10 mM) using plates (Millipore MAFCN0B50) preincubated for 15 min. in 250 μl of the same buffer. Samples were counted using 30 μl of LSC Universol (ICN) in a Wallac 1450 Microbeta counter. Non specific binding was tested using 10 μM R-PIA.

In experiment [2] the target is T2, human recombinant A3 receptor (Homo sapiens, UniProt P0DMS8).
T2 construct: expressed in transfected cells; host or cells: HeLa (stably transfected)
T2 sequence (P0DMS8 1-318): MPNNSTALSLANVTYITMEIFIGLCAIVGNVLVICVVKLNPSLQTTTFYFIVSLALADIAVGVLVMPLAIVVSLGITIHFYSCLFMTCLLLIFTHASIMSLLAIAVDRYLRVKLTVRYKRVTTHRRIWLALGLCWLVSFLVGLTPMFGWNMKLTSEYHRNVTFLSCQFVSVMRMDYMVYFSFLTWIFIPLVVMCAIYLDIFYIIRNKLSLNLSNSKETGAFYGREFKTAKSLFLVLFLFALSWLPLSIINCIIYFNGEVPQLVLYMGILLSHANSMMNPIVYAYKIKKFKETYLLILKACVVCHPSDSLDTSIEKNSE
Kind of experiment: Adenosine 3 receptor subtype competition radioligand binding assay. Here is the method: Adenosine 3 Receptor Subtype Competition Radioligand Binding Assay
Membranes were prepared from Hela cells stably transfected with the human recombinant A3 receptor. For membrane preparation, cells were collected from tissue culture plates using a cell scraper, resuspended in 10-15 ml of homogenization buffer (Tris-HCl 5 mM, EDTA 2 mM), homogenized, and centrifuged at 1.000 g. for 10 min. at 4° C. The supernatant was then recovered and centrifuged at 50.000 g for 1 h. at 4° C. Finally, the pellet was resuspended in 100-500 μl of storage buffer (Tris-HCl 50 mM pH 7.4) where the total protein content was determined.
Competition assays were carried out incubating 100 μg of A3-membranes, 30 nM [^3H]-NECA (Amersham) as radioligand and 50 μM of unlabeled NECA ligand, in a total volume of 100 μl of buffer (Tris-HCl 50 mM pH 7.4, MgCl2 5 mM, EDTA 1 mM, 2 U/ml adenosine deaminase) for 3 hours at 25° C. Samples were filtered 4 times with 250 μl of buffer (Tris-HCl 50 mM pH 7.4) using plates (Millipore MAFBN0B50) preincubated for 15 min. in 250 μl of the same buffer. Samples were counted using 30 μl of LSC Universol (ICN) in a Wallac 1450 Microbeta counter. Non specific binding was tested using 100 μM of R-PIA.

For experiment [3], the target named is T3, human recombinant A2A receptor (Homo sapiens, UniProt P29274).
T3 construct: expressed in transfected cells; host or cells: HeLa (stably transfected)
Nature of the experiment: Adenosine 2A receptor subtype competition radioligand binding assay. Conditions: [3H]-ZM241385, Hela cell membranes. On the procedure: Adenosine 2A Receptor Subtype Competition Radioligand Binding Assay
Membranes were prepared from Hela cells stably transfected with the human recombinant A2A receptor. For membrane preparation, cells were collected from tissue culture plates using a cell scraper, resuspended in 10-15 ml homogenization buffer (Tris-HCl 5 mM, EDTA 2 mM), homogenized, and centrifuged at 1.000 g. for 10 min. at 4° C. The supernatant was then recovered and centrifuged at 50.000 g for 1 h. at 4° C. Finally, the pellet was resuspended in 100-500 μl storage buffer (Tris-HCl 50 mM pH 7.4) where the total protein content was determined.
Competition assays were carried out incubating 5 μg of A2A-membranes, 3 nM [^3H]-ZM241385 (Tocris) as radioligand and 50 μM of unlabeled ZM241385 ligand, in a total volume of 100 μl of buffer (TrisHCl 50 μM pH 7.4, EDTA 1 mM, MgCl2 10 mM, 2 U/ml adenosin deaminase) for 30 minutes at 25° C. Samples were then filtered and washed 4 times with 250 μl of buffer (TrisHCl 50 μM pH 7.4, EDTA 1 mM, MgCl2 10 mM) using plates (Millipore MAFCN0B50) preincubated for 15 min. in 250 μl of the same buffer. Samples were counted using 30 μl of LSC Universol (ICN) in a Wallac 1450 Microbeta counter. Non specific binding was tested using 50 μM NECA.

Setting [4] is: [3H]-NECA, Hela cell membranes, read-out: Binding human A3 Ki.

Read-outs that look alike come from different tables or passages of the source.

T3 sequence (P29274 whole entry): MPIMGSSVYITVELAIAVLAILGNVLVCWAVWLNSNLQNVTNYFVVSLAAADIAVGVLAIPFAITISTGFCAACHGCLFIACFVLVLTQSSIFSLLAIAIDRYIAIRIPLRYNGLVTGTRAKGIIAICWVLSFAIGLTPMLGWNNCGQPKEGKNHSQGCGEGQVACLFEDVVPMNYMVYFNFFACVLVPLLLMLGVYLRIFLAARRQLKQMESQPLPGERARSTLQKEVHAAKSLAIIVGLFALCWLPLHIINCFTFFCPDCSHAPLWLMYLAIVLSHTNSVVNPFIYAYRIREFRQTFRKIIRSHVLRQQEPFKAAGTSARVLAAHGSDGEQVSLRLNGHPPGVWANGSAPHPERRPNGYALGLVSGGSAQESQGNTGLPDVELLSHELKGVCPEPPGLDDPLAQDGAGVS

As for `c1cncc(Nc2ncc(-c3ccncn3)c(-c3ccco3)n2)c1` [Example 1, 4′-(2-Furyl)-N-pyridin-3-yl-4,5′-bipyrimidin-2′-amine], the inhibition at 1 µM in experiment [1] worked out at 14%. For the same molecule, the values for the Ki in experiment [2] (setting [4]) and in experiment [3] were 1.1 µM and 2.54 µM, respectively.
Turning to `COc1ccc(Nc2ncc(-c3ccncn3)c(-c3ccco3)n2)cn1` [Example 2, 4′-(2-Furyl)-N-(6-methoxypyridin-3-yl)-4,5′-bipyrimidin-2′-amine], in experiment [1], the inhibition at 1 µM stood at 5%. For the same molecule, the Ki in experiment [2] worked out at 4.32 µM. For the same molecule, the “Binding human A2A, % @ 1 μM (column headed Ki (nM))” value (“Binding human A2A, % @ 1 μM” below) in experiment [3] is reported as 14% @ 1 μM.
For the molecule `Fc1ccc(Nc2ncc(-c3ccncn3)c(-c3ccco3)n2)cn1` [Example 4, N-(6-Fluoropyridin-3-yl)-4′-(2-furyl)-4,5′-bipyrimidin-2′-amine], the inhibition at 1 µM in experiment [1] came out at 30%. Moreover, the inhibition constant (Ki) in experiment [2] (setting [4]) worked out at 1.69 µM. Further, the “Binding human A2A, % @ 1 μM” value in experiment [3] worked out at 21% @ 1 μM.
With `c1cncc(Nc2ncc(-c3ccncn3)c(-c3cccs3)n2)c1` [Example 6, N-Pyridin-3-yl-4′-thien-2-yl-4,5′-bipyrimidin-2′-amine], the inhibition at 1 µM in experiment [1] came to 31%. Also, the values for the Ki in experiment [2] (setting [4]) and in experiment [3] were 0.31 µM and 0.62 µM, respectively.
As to `c1cncc(Nc2ncc(-c3ccnnc3)c(-c3ccco3)n2)c1` [Example 11, 4-(2-Furyl)-5-pyridazin-4-yl-N-pyridin-3-ylpyrimidin-2-amine], in experiment [1], the inhibition at 1 µM is 23%. Also, in experiment [2] (setting [4]), the inhibition constant (Ki) was determined as 0.407 µM. Further, the “Binding human A2A, % @ 1 μM” value in experiment [3] amounted to 17% @ 1 μM.
For `[O-][n+]1cccc(Nc2ncc(-c3ccncn3)c(-c3ccco3)n2)c1` [Example 12, 4′-(2-Furyl)-N-(1-oxidopyridin-3-yl)-4,5′-bipyrimidin-2′-amine], in that order: 4%, 0.846 µM and 7% @ 1 μM.
The like results for `c1coc(-c2nc(Nc3cncnc3)ncc2-c2ccncn2)c1` [Example 13, 4′-(2-Furyl)-N-pyrimidin-5-yl-4,5′-bipyrimidin-2′-amine] were, in that order, 3%, 1.44 µM and 15% @ 1 μM.
For `O=c1ccc(Nc2ncc(-c3ccncn3)c(-c3ccco3)n2)c[nH]1` [Example 21, 5-{[4′-(2-Furyl)-4,5′-bipyrimidin-2′-yl]amino}pyridin-2(1H)-one], in that order: 0%, 2.79 µM and 0% @ 1 μM.

What is called Ki is the equilibrium dissociation constant of an inhibitor or competing ligand from its target.
